Where “and” joins values, the source holds several entries; their conditions need not be identical. Identical values can stand only once.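 Method: 48-hour compound exposure of cells in 96-well plates, five concentrations, linear interpolation of endpoints. The concentration for 50% growth inhibition is given as GI50. TGI marks complete inhibition of growth.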
Experiments:
Assay in all cases: NCI tumour cell line growth inhibition, 48 h
[1] = tested on: HT29 colon
[2] = tested on: SF-295 CNS
[3] = tested on: SF-539 CNS
[4] = tested on: KM12 colon
[5] = tested on: SF-268 CNS
[6] = tested on: IGROV1 ovarian
[7] = tested on: XF 498 CNS
[8] = tested on: SNB-78 CNS
[9] = tested on: 786-0 renal
[10] = tested on: SN12C renal
[11] = tested on: UO-31 renal
[12] = tested on: EKVX NSCLC
[13] = tested on: CCRF-CEM leukemia
[14] = tested on: SK-MEL-5 melanoma
[15] = tested on: HOP-62 NSCLC
[16] = tested on: U251 CNS
[17] = tested on: NCI-H23 lung
[18] = tested on: SW-620 colon
[19] = tested on: HCT-116 colon
[20] = tested on: DMS 114 small cell lung
[21] = tested on: SK-MEL-2 melanoma
[22] = tested on: OVCAR-4 ovarian
[23] = tested on: M14 melanoma
[24] = tested on: K-562 leukemia
[25] = tested on: TK-10 renal
[26] = tested on: LOX IMVI melanoma
[27] = tested on: HCT-15 colon
[28] = tested on: M19-MEL melanoma
[29] = tested on: SNB-75 CNS
[30] = tested on: UACC-62 melanoma
[31] = tested on: NCI-H460 lung
[32] = tested on: UACC-257 melanoma
[33] = tested on: DLD-1 colon
[34] = tested on: LXFL 529 NSCLC
[35] = tested on: SK-OV-3 ovarian
[36] = tested on: HCC-2998 colon
[37] = tested on: NCI-H522 lung
[38] = tested on: RXF-631 renal
[39] = tested on: MALME-3M melanoma
[40] = tested on: A549 NSCLC
[41] = tested on: RPMI-8226 leukemia
[42] = tested on: SK-MEL-28 melanoma
[43] = tested on: OVCAR-3 ovarian
[44] = tested on: A498 renal
[45] = tested on: SNB-19 CNS
[46] = tested on: OVCAR-8 ovarian
[47] = tested on: COLO 205 colon
[48] = tested on: RXF 393 renal
[49] = tested on: CAKI-1 renal
[50] = tested on: DMS 273 small cell lung
[51] = tested on: HL-60(TB) leukemia
[52] = tested on: HOP-92 NSCLC
[53] = tested on: OVCAR-5 ovarian
[54] = tested on: ACHN renal
[55] = tested on: KM20L2 colon
[56] = tested on: MOLT-4 leukemia
[57] = tested on: NCI-H226 lung
[58] = tested on: BT-549 breast
[59] = tested on: NCI/ADR-RES ovarian
[60] = tested on: MDA-N
[61] = tested on: DU-145 prostate
[62] = tested on: MDA-MB-435
[63] = tested on: P388 leukemia
[64] = tested on: PC-3 prostate
[65] = tested on: MDA-MB-231 breast

O=CC1=CCCC2(C1)OCCO2
TGI [1]: > 100 µM | TGI [2]: > 100 µM | TGI [3]: > 100 µM | TGI [4]: > 100 µM | TGI [5]: > 100 µM | TGI [6]: > 100 µM | TGI [7]: > 100 µM | TGI [8]: > 100 µM | TGI [9]: > 100 µM | TGI [10]: > 100 µM | TGI [11]: > 100 µM | TGI [12]: > 100 µM | TGI [13]: > 100 µM | TGI [14]: > 100 µM | TGI [15]: > 100 µM | TGI [16]: > 100 µM | TGI [17]: > 100 µM | TGI [18]: > 100 µM | TGI [19]: > 100 µM | TGI [20]: > 100 µM | TGI [21]: > 100 µM | TGI [22]: > 100 µM | TGI [23]: > 100 µM | TGI [24]: > 100 µM | TGI [25]: > 100 µM | TGI [26]: > 100 µM | TGI [27]: > 100 µM | TGI [28]: > 100 µM | TGI [29]: 24.2 µM | TGI [30]: > 100 µM | TGI [31]: > 100 µM | TGI [32]: > 100 µM | TGI [33]: > 100 µM | TGI [34]: > 100 µM | TGI [35]: > 100 µM | TGI [36]: > 100 µM | TGI [37]: > 100 µM | TGI [38]: > 100 µM | TGI [39]: > 100 µM | TGI [40]: > 100 µM | TGI [41]: > 100 µM | TGI [42]: > 100 µM | TGI [43]: > 100 µM | TGI [44]: > 100 µM | TGI [45]: > 100 µM | TGI [46]: > 100 µM | TGI [47]: > 100 µM | TGI [48]: > 100 µM | TGI [49]: > 100 µM | TGI [50]: > 100 µM | TGI [51]: > 100 µM | TGI [52]: > 100 µM

C=C1C(=O)O[C@@H]2C[C@]3(C)[C@@H](C[C@H]12)[C@](C)(O)CC[C@@H]3O
TGI [1]: > 100 µM | TGI [2]: > 100 µM | TGI [3]: > 100 µM | TGI [4]: > 100 µM | TGI [5]: > 100 µM | TGI [6]: > 100 µM | TGI [7]: > 100 µM | TGI [53]: > 100 µM | TGI [8]: > 100 µM | TGI [9]: > 100 µM | TGI [10]: > 100 µM | TGI [11]: > 100 µM | TGI [12]: > 100 µM | TGI [13]: > 100 µM | TGI [14]: > 100 µM | TGI [15]: > 100 µM | TGI [16]: > 100 µM | TGI [17]: > 100 µM | TGI [18]: > 100 µM | TGI [19]: > 100 µM | TGI [20]: > 100 µM | TGI [21]: > 100 µM | TGI [22]: > 100 µM | TGI [23]: > 100 µM | TGI [24]: > 100 µM | TGI [25]: 76.6 µM | TGI [26]: > 100 µM | TGI [54]: > 100 µM | TGI [27]: > 100 µM | TGI [28]: > 100 µM | TGI [29]: > 100 µM | TGI [30]: > 100 µM | TGI [31]: 68.9 µM | TGI [33]: > 100 µM | TGI [34]: > 100 µM | TGI [35]: > 100 µM | TGI [36]: > 100 µM | TGI [37]: > 100 µM | TGI [38]: > 100 µM | TGI [39]: > 100 µM | TGI [40]: > 100 µM | TGI [41]: > 100 µM | TGI [42]: > 100 µM | TGI [43]: > 100 µM | TGI [45]: > 100 µM | TGI [46]: > 100 µM | TGI [55]: > 100 µM | TGI [56]: > 100 µM | TGI [47]: > 100 µM | TGI [49]: > 100 µM | TGI [50]: > 100 µM | TGI [57]: > 100 µM | TGI [52]: > 100 µM

CC[C@@H](C)[C@@H]1NC(=O)C(NC(=O)C(CC(C)C)N(C)C(=O)C2CCCN2C(=O)C(C)O)C(C)OC(=O)C(Cc2ccc(OC)cc2)N(C)C(=O)C2CCCN2C(=O)C(CC(C)C)NC(=O)C(C)C(=O)C(C(C)C)OC(=O)C[C@H]1O (stereo partly drawn)
TGI [58]: 0.0967 µM | TGI [59]: 1.88 µM and 0.359 µM | TGI [2]: 0.0115 µM and 0.0194 µM and 0.029 µM | GI50 [60]: 0.0021 µM | TGI [61]: 0.0504 µM | TGI [62]: 0.00316 µM and 0.00845 µM | GI50 [8]: 1.65 pM | TGI [9]: 0.00827 µM and 0.0533 µM | TGI [23]: 0.00648 µM and 0.039 µM | TGI [25]: 0.0495 µM and 0.0741 µM | TGI [54]: 0.0204 µM and 0.053 µM | TGI [63]: 0.03 µM and < 0.0103 µM | TGI [36]: 0.00511 µM and 0.0314 µM | TGI [56]: 0.0547 µM and 0.0255 µM | GI50 [64]: 0.00251 µM | TGI [64]: 0.0425 µM and 0.0487 µM | TGI [48]: 0.01 µM and 0.0647 µM | TGI [65]: 0.0199 µM and 0.053 µM
